The text below walks through data of US20260306460A1, “COMPOSITION FOR REMOVING AND INHIBITING SENESCENT CELLS, AND USES THEREOF” (LIFECEUTIX CO., LTD., priority 2023, published 2026).

In data set [1] the test system is NaIO3-induced retinal degenerative C57BL6J mice. Description: NaIO3 retinal degeneration in mice (p16 mRNA, outer nuclear layer thickness), Example 29, Table 53. The format is in vivo, mouse. As to conditions: daily for 21 days; for Outer nuclear layer thickness: untreated 27.4 (±1.3); for p16 mRNA: untreated 100%.
Procedure: Then, retinal degenerative diseases were induced for more than 7 days by intravenous administration of 20 mg/kg of NaIO3, an oxidizing agent that induces retinal pigment epithelial cell death and retinal degeneration. Mice with retinal degenerative diseases were randomly assigned to experimental and control groups. […] The control group received only the solution in the same volume. […] In addition, frozen sections of the other eye tissue were stained with H/E (Hematoxylin/Eosin), and the thickness of the outer nuclear layer (ORL) was observed under an optical microscope. […] The mRNA amount after aging induction was calculated as 100% and compared with the mRNA amount of p16 after treatment with the test compound.
Another data set concerns senescent foreskin cells. Description: Survival of senescent human cells treated with supernatant (secreted fluid) from death-induced cells, Example 13. The format is cell-based. The settings on record: Table 8; supernatant from dying senescent cells treated at 30, 90 or 270 μM (as Example 11); senescent treated cells.
For data set [2], the system named is naturally aged C57BL6J mice. The data set can be described thus: Hot plate joint pain test in naturally aged mice, Example 21-12, Table 27. The settings on record: hot plate 55° C., untreated aged 6.9 (±1.8). The format is in vivo, mouse. As for the experimental part: (§1) 22-month-old female C57BL6J mice (KRIBB Laboratory Animal Resource Center) were acclimated to the experimental environment for one week, after which the aged mice were randomly assigned to experimental and control groups. Eight-week-old, non-aged mice served as controls. LX-403 was mixed in a 10% ethanol solution of PEG400 and administered orally at a concentration of 25 mg/kg daily for 21 days, or administered to the skin, joints, or eyes at a concentration of 1 μM. LX-1801 was mixed in distilled water with 4% DMSO, 30% PEG300, and 5% Tween80 and administered to the skin, joints, or eyes at a concentration of 0.4 μM daily for 21 days. LX-2001 was mixed in PBS and administered to the skin, joints, or eyes at a concentration of […] daily for 21 days. LX-2002 was mixed in distilled water with 4% DMSO, 30% PEG300, and 5% Tween80 and administered to the skin, joints, or eyes at a concentration of 2 μM daily for 21 days. […] LX-2005 was mixed in distilled water with 4% DMSO, 30% PEG300, and 5% Tween80 and administered to the skin, joints, or eyes at a concentration of 90 μM daily for 21 days. LX-2007 was mixed in distilled water with 4% DMSO, 30% PEG300, and 5% Tween80 and administered to the skin, joints, or eyes at a concentration of 90 μM daily for 21 days. […] LX-3002 was mixed in distilled water with 4% DMSO, 30% PEG300, and 5% Tween80 and administered orally at a concentration of 10 mg/kg daily for 21 days. […] LX-5411 was mixed in 5% PBS and administered orally at a concentration of 10 mg/kg daily for 21 days or administered to the skin, joints, or eyes at a concentration of 3 μM. LX-5701 was mixed in PBS and administered orally at a concentration of 360 mg/kg daily for 21 days. LX-6807 was mixed in saline and administered intraperitoneally at a concentration of 1 mg/kg daily for 21 days. LX-2101 or LX-2102 was mixed in PBS solution with 5% DMSO and administered intraperitoneally at a concentration of 20 mg/kg or 10 mg/kg, respectively, daily for 21 days. The control group received only the solution in the same volume. After the end of drug administration, the methods described in each example below were performed.
RNA was extracted from joint tissue as described in Example 7-2 of WO2023-085787 A1, and qRT-PCR was performed using the synthesized cDNA. […] To analyze joint pain due to joint aging, hotplate analysis was performed. Specifically, thermal pain thresholds were measured using a hot plate. After acclimating mice to a temperature of 30° C. for 10 minutes, the time required for hind paw licking or jumping responses to occur at 55° C. was measured. To prevent tissue damage, the response was measured for less than 30 seconds, and the average value was used from five measurements.

Data set [3] has as its system naturally aged C57BL6J mice. The format is in vivo, mouse. The settings on record: after 7 days; 6 mm punch dorsal skin wounds; naturally aged mice; untreated aged 3.2 (±0.4).
For data set [4], the system named is naturally aged C57BL6J mice. The data set can be described thus: Cataract incidence in naturally aged mice, Example 21-15, Table 30. The format is in vivo, mouse. As to conditions: orally twice a week, 360 mg/kg, until death, untreated aged 83. As for the experimental part: as §1
Cataracts, which occur with age, are a disease that causes visual impairment due to clouding of the lens and are a major cause of blindness. The mice of Example 21-1 were treated with the test compound mixed in PBS orally twice a week at a concentration of 360 mg/kg. Cataract development was assessed biweekly until death.

Data set [5] has as its system HMGN1 secreted from senescent A549 cells. The data set can be described thus: HMGN1 secretion (ELISA) from senescent A549 cancer cells, Example 12.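 Also: A549 cells made senescent by doxorubicin exposure, with DMSO-treated cells serving as the non-senescent control.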 The format is cell-based, human. The settings on record: senescent untreated = 100%; 30 μM; 90 μM for LX-305, 905, 1302, 1601, 1603, 2003, 2702, 2901, 3106; 270 μM for LX-1103, 2005, 2007.
Procedure: Cells were treated with doxorubicin or control (DMSO) and cultured.
For data set [6], the system named is naturally aged C57BL6J mice. The data set can be described thus: Skin aging (dermal thickness, COL1A1 and SDF1 mRNA, hair loss) in naturally aged mice, Example 21-10, Table 25. The format is in vivo, mouse. The settings on record: for Dermal Thickness (μm): mouse, in vivo; for Relative area of hair loss (%) / Col1a1 mRNA (Fold) / SDF1 mRNA (fold): naturally aged mice; for Relative area of hair loss (%): untreated aged = 100; for Col1a1 mRNA (Fold) / SDF1 mRNA (fold): skin, untreated aged = 1. As for the experimental part:
as §1
Frozen sections of skin tissue were stained with Hematoxylin/Eosin (H/E), and the dermal thickness was observed under an optical microscope. Furthermore, the mRNA levels of collagen (COL1A1), a skin component, and SDF1, which suppresses age-related pigmentation, were measured using qRT-PCR as described in Example 7-2 of WO2023-085787 A1. […] Furthermore, biweekly examinations were performed to assess the onset of hair loss due to aging.

Procedure for senescent foreskin cells: After 3 days, cell viability was measured using CellTiter-Glo Luminescent Cell Viability Assay (Promega) or light microscopy.
During this additional culture, by checking with an optical microscope, etc., the medium supernatants containing secreted fluid from normally proliferating and senescent cells in which cell death was induced were obtained. The obtained medium supernatant was replaced with the medium of normally proliferating and senescent cells, respectively, and cell survival rate was measured after 3 days.

Regarding `C=C(C)[C@@H]1CC[C@]2(C(=O)O)CC[C@]3(C)[C@H](CC[C@@H]4[C@@]5(C)CC[C@H](O)C(C)(C)[C@@H]5CC[C@]43C)[C@@H]12` [LX-2005, Betulinic acid], in data set [1], the “Outer nuclear layer thickness” value is 30.9 (±3.8) μm and the “p16 mRNA” value is 71 (±4.9) %. In addition, in the data set on senescent foreskin cells, the Survival is listed as 91.6. Also, the “Response time (s)” value in data set [2] is listed as 4.9 (±1.2) s. In data set [3], the “Wound size (mm)” value is 2.9 (±0.3) mm. Further, the “Cataract incidence (%)” value in data set [4] is listed as 72%. Also, the HMGN1 in data set [5] turned out to be 252%. In data set [6], the “Dermal Thickness (μm)” value is 227 (±28.4) μm, the “Relative area of hair loss (%)” value was 80 (±4.9) %, the “Col1a1 mRNA (Fold)” value is recorded as 1.7 (±0.2) Fold and the “SDF1 mRNA (fold)” value was 1.9 (±0.2) fold.
With `C[C@H]1[C@H](C)CC[C@]2(C(=O)O)CC[C@]3(C)C(=CC[C@@H]4[C@@]5(C)C[C@@H](O)[C@H](O)C(C)(C)[C@@H]5CC[C@]43C)[C@H]12` [LX-2002, Corosolic acid], in data set [1], the “Outer nuclear layer thickness” value is 30.1 (±7.8) μm and the “p16 mRNA” value is on record as 60 (±3.8) %. The same compound gave a Survival in the data set on senescent foreskin cells of 58.3. The “Response time (s)” value in data set [2] is reported as 5.3 (±0.6) s. Further, the “Wound size (mm)” value in data set [3] is reported as 2.7 (±0.4) mm. For the same compound, the “Cataract incidence (%)” value in data set [4] was 71%. In data set [5], this compound registered an HMGN1 of 314%. In addition, in data set [6], the “Dermal Thickness (μm)” value was 253 (±40.1) μm, the “Relative area of hair loss (%)” value is given as 75 (±8.3) %, the “Col1a1 mRNA (Fold)” value is given as 1.9 (±0.3) Fold and the “SDF1 mRNA (fold)” value is listed as 1.4 (±0.1) fold.
For the compound `O=C(C(C[N+](=O)[O-])=NO)N1CCN(C(c2ccc(Cl)cc2)c2ccc(Cl)cc2)CC1` [LX-403], in data set [1], the “Outer nuclear layer thickness” value is reported as 40.1 (±1.9) μm and the “p16 mRNA” value was 34 (±2.2) %. This compound displayed a Survival in the data set with senescent foreskin cells of 45.1. In data set [2], the “Response time (s)” value is recorded as 5.6 (±0.7) s. Besides, the “Wound size (mm)” value in data set [3] was 1.9 (±0.2) mm. Further, in data set [4], the “Cataract incidence (%)” value came out at 57%. The compound further displayed an HMGN1 in data set [5] of 320%. In data set [6], the “Dermal Thickness (μm)” value is recorded as 232 (±16.2) μm, the “Relative area of hair loss (%)” value is on record as 69 (±2.5) %, the “Col1a1 mRNA (Fold)” value is 2.4 (±0.2) Fold and the “SDF1 mRNA (fold)” value is recorded as 1.8 (±0.1) fold.
In the case of Tocofersolan [LX-3001], in data set [1], the “Outer nuclear layer thickness” value is listed as 34.1 (±2.1) μm and the “p16 mRNA” value is listed as 80 (±2.5) %. This compound also gave a Survival in the data set on senescent foreskin cells of 58.7. Also, in data set [2], the “Response time (s)” value is reported as 6.1 (±0.6) s. Moreover, the “Wound size (mm)” value in data set [3] is given as 2.4 (±0.1) mm. In addition, the “Cataract incidence (%)” value in data set [4] came out at 73%. The compound further came in with an HMGN1 in data set [5] of 261%. The “Dermal Thickness (μm)” value in data set [6] was 223 (±15.7) μm.
Turning to `CC1(C)C=C2[C@H]3CC[C@@H]4[C@@]5(C)CCC(=O)C(C)(C)[C@@H]5CC[C@@]4(C)[C@]3(C)CC[C@@]2(C(=O)O)CC1` [LX-2007, Moronic acid], in data set [1], the “Outer nuclear layer thickness” value is on record as 29.4 (±7.5) μm and the “p16 mRNA” value is on record as 75 (±5.9) %. The compound also showed a Survival with senescent foreskin cells of 95.7. Besides, the “Response time (s)” value in data set [2] is 5.8 (±0.5) s. For the same compound, the “Wound size (mm)” value in data set [3] was 3.0 (±0.2) mm. Also, in data set [4], the “Cataract incidence (%)” value came to 80%. Besides, the HMGN1 in data set [5] turned out to be 192%. Further, in data set [6], the “Dermal Thickness (μm)” value is on record as 219 (±31.1) μm, the “Relative area of hair loss (%)” value is reported as 86 (±5.5) %, the “Col1a1 mRNA (Fold)” value is 1.6 (±0.3) Fold and the “SDF1 mRNA (fold)” value is 1.3 (±0.2) fold.
As for `C[C@H]1[C@H](C)CC[C@]2(C(=O)O)CC[C@]3(C)C(=CC[C@@H]4[C@@]5(C)CC[C@H](O)C(C)(C)[C@@H]5CC[C@]43C)[C@H]12` [LX-2001, Ursolic acid], in data set [1], the “Outer nuclear layer thickness” value is 34.1 (±5.1) μm and the “p16 mRNA” value is reported as 61 (±4.1) %. This compound displayed a Survival in the data set with senescent foreskin cells of 57.8. The “Response time (s)” value in data set [2] is listed as 5.0 (±0.9) s. In data set [3], the “Wound size (mm)” value was 2.5 (±0.5) mm. In addition, the “Cataract incidence (%)” value in data set [4] was found to be 75%. In data set [5], this compound yielded an HMGN1 of 328%. Moreover, in data set [6], the “Dermal Thickness (μm)” value is on record as 241 (±46.6) μm, the “Relative area of hair loss (%)” value is given as 73 (±8.3) %, the “Col1a1 mRNA (Fold)” value was 2.2 (±0.4) Fold and the “SDF1 mRNA (fold)” value was 1.6 (±0.2) fold.
